Source: US4265882A, “Sulphur analogs of penicillins having a nucleophile substituted in the 6 and 7 position, respectively” (Massachusetts Institute of Technology, priority 1977, dated 1981)

Key:
[1] = literature; cited from earlier work
[2] = tested on: Bacillus subtillis ATCC 6051; assay: Minimum inhibitory concentration in vitro, Bacillus subtillis; type: cell-based; set-up: unit not given here; conditions: free acids tested after removal of ester protective group
Experimental: (§1) General Procedure for Removing Protective Groups
(§2) The ester (100-200 mg) is dissolved in approx. 10 ml of 90% HOAc and the solution cooled to 0° before 1-1.5 g of zinc dust is added. The mixture is stirred at 0° for 3-5 hr. Removal of the zinc by filtration through celite into a flask containing 100 ml of ice-H2 O and washing the zinc with methylene chloride (50 ml) yielded a two-phase system. Separation of the organic layer, extraction of the aqueous layer with several methylene chloride-zinc washings, drying (MgSO4) and removal of the solvent under reduced pressure (no heat) afforded the free acid.
(§3) For purification (if required) the acid was dissolved in CH2 Cl2 and extracted with aqueous NaHCO3. The aqueous layer, after being extracted several times with CH2 Cl2, was cooled with ice and acidified with dilute HCl. Extraction with CH2 Cl2, drying (MgSO4) and removal of the solvent under reduced pressure (no heat) gave the pure acid.
(§4) A flask, charged with the ester, is submerged in an ice bath 5-10 min. before cold trifluoroacetic acid is added. The solution is stirred at 0° for 30-45 min. and then the solvent removed by distillation under reduced pressure (2-3 mm) with the reaction flask still submerged in the ice bath. The residue is freeze dried from benzene.
If purification is required, it is done in the same manner as described for removal of the trichloroethyl group (see above).
The benzhydryl group is removed in the same manner as described for the removal of the t-butyl group, above. After freeze drying the residue was purified in the following manner. The acid was dissolved in methylene chloride and extracted with aqueous NaHCO3. The aqueous layer, after being extracted several times with methylene chloride, was partitioned with methylene chloride, cooled with ice, and acidified with dilute HCl. Extraction with methylene chloride, drying (MgSO4), and removal of the solvent under reduced pressure (no heat) gave the pure acid.
In order to remove the protective benzyhydryl group from benzyhydryl-6β-(triophene-2-acetylthio)-6α-methoxypenicillanate, the following procedure was found necessary. The ester (70-80 mg) is dissolved in 10 ml of CH2 Cl2 and the solution cooled to -77° (CO2 -acetone) before the addition of 0.5 ml of trifluoroacetic acid. The solution was warmed to approximately -10° (NaCl-H2 O-ice) and stirred at that temperature for 5-6 hr. The solution was cooled to -77° and 75-100 ml of benzene added. After the contents of the flask solidified the acid was isolated by freeze drying and bioassayed without purification.
The protective groups of the penicillin and cephalosporin esters were removed as described above and the resulting free acids were tested in vitro for bioactivity.

[3] = tested on: certain Gram-negative organisms; conditions: background; cited from earlier work
[4] = tested on: certain resistant staphylococci; conditions: background; cited from earlier work
Sarcina lutea = assay: Minimum inhibitory concentration in vitro, Sarcina lutea; type: cell-based; conditions: free acids tested after removal of ester protective group
Experimental: as §1, §2, §3, §4
(§5) If purification is required, it is done in the same manner as described for removal of the trichloroethyl group (see above). […]

[5] = tested on: Staphylococcus aerus (Roche); assay: Minimum inhibitory concentration in vitro, Staphylococcus aerus (Roche); type: cell-based; set-up: unit not given here; conditions: free acids tested after removal of ester protective group
Experimental: as §1, §2, §3, §4, §5

Q: Which biological activity [1] does the source give for CC1(C)S[C@@H]2[C@@H](OC(=O)COc3ccccc3)C(=O)N2[C@H]1C(=O)O [6α-phenoxyacetoxypenicillanic acid] here?
A: exhibits no biological activity

Q: With COC1(SC(=O)OCC(Cl)(Cl)Cl)C(=O)N2C(C(=O)OC(c3ccccc3)c3ccccc3)C(C)(C)SC21 (stereo not drawn) [Benzhydryl 6β-(β,β,β-trichloroethoxycarbothio)6α-methoxypenicillanate] as the compound, how does the “Minimum Inhibitory Concentration” value [2] read?
A: 100

Q: For CC1(C)S[C@@H]2[C@H](NC(=O)[C@H](N)c3ccccc3)C(=O)N2[C@H]1C(=O)O [ampicillin], which “broadened spectra of activity, Gram-negative organisms” value [3] is on record?
A: broadened the spectra to activity to include use against certain Gram-negative organisms

Q: With CC1(C)S[C@@H]2[C@H](NC(=O)C(C(=O)O)c3ccccc3)C(=O)N2[C@H]1C(=O)O (some centres unmarked) [carbenicillin] as the compound, how does the “broadened spectra of activity, Gram-negative organisms” value [3] read?
A: broadened the spectra to activity to include use against certain Gram-negative organisms

Q: With COc1cccc(OC)c1C(=O)N[C@@H]1C(=O)N2[C@@H]1SC(C)(C)[C@@H]2C(=O)O [methicillin] as the compound, how does the “activity against certain resistant staphylococci” value [4] read?
A: good activity

Q: What does the source list for COC(=O)SC1(OC)C(=O)N2C(C(=O)OC(C)(C)C)=C(COC(C)=O)CSC21 (stereo not drawn) [t-Butyl 7β-(methoxycarbothio)-7α-methoxycephalosporanate]?
A: Minimum Inhibitory Concentration (Sarcina lutea): 25 mg/mL; Minimum Inhibitory Concentration [2]: 50; Minimum Inhibitory Concentration [5]: 50

Q: With COC1(SC(=O)Cc2ccccc2)C(=O)N2C(C(=O)OC(C)(C)C)=C(COC(C)=O)CSC21 (stereo not drawn) [tert-Butyl 7β-(phenylacetylthio)-7α-methoxycephalosporanate] as the compound, how does the “Minimum Inhibitory Concentration” value (Sarcina lutea) read?
A: 100 mg/mL

Q: What about the “Minimum Inhibitory Concentration” value [2] of the same compound?
A: < 6.25

Q: For COC1(SC(=O)Cc2cccs2)C(=O)N2C(C(=O)OC(C)(C)C)=C(COC(C)=O)CSC21 (stereo not drawn) [tert-Butyl 7β-(thiophene-2-acetylthio)-7α-methoxycephalosporanate], which “Minimum Inhibitory Concentration” value [2] is on record?
A: 50
